Read-outs that look alike come from different tables or passages of the source.
Columns and labels:
[1] = test system: wt myocytes; experiment: Force-frequency response: sarcomere shortening and calcium transients; type: cell-based, mouse; details: hydralazine 0.01, nitroglycerin 0.01, DETA/NO 0.1 mmol/L, 5 minutes incubation
Procedure: (§1) Isolated Myocytes Preparation: Cardiac myocytes were isolated and prepared from mouse hearts as described in detail by Khan et al. (Khan S. A. et al. Circ Res 2003;92:1322-1329). Sarcomere length (SL) and [Ca^2+]i were measured simultaneously in myocytes stimulated at 1, 2, 4, 6 and 8 Hz. […] All experiments were conducted at 37° C. SL was recorded with an IonOptix iCCD camera. Change in average SL was determined by Fast Fourier Transform analysis of the Z-line density trace to the frequency domain, and SL Shortening was calculated as follows: (diastolic SL—systolic SL)/diastolic SL. Intracellular calcium, was measured using the Ca^2+-sensitive dye Fura-2 and a dual-excitation spectrofluorometer (IonOptix), alternately excited with a xenon lamp at wavelengths of 365 and 380 nm The emission fluorescence was reflected through a barrier filter (510±15 nm) to a photomultiplier tube. The Fura-2 fluorescence ratio, i.e., the ratio of the photon live count detected by the excitation at 365 nm compared with 380 nm, represents [Ca^2]i.

[2] = test system: NOS1−/− myocytes; experiment: as above; type: cell-based, mouse; details: hydralazine 0.01, nitroglycerin 0.01, DETA/NO 0.1 mmol/L, 5 minutes incubation
Procedure: as §1

[3] = test system: NOS1−/− myocytes; experiment: SR Ca2+ leakage protocol, Example 1 (0Na/0Ca buffer, caffeine); type: cell-based, mouse
Procedure: The hearts were cannulated and perfused trough the aorta with Ca^2+-free bicarbonate buffer containing (in mM) 120 NaCl, 5.4 KCl, 1.2 MgSO4, 1.2 NaH2PO4, 5.6 glucose, 20 NaHCO3, 10 2,3-butanedione monoxime (BDM; Sigma), and 5 taurine (Sigma), gassed with 95% O2-5% CO2, followed by enzymatic digestion with collagenase type 2 (1 mg/ml; Worthington) and protease type XIV (0.1 mg/ml; Sigma). Ventricular myocytes were obtained by mechanical disruption of digested hearts, filtration, centrifugation, and resuspension in a Tyrode solution containing (in mM) 0.125 mM CaCl2 144 NaCl, 1 MgCl2, 10 HEPES, 5.6 Glucose, 1.2 NaHPO4, 5 KCl, adjusted to a pH of 7.4 with NaOH. Then, the Ca^2+ content of the buffer was increased in steps until reaching 1.8 mM.
Myocytes were incubated with 5 μmol/L fura-2/AM (Molecular Probes, Eugene, Oreg.) then transferred to a Lucite chamber on the stage of an inverted microscope (Nikon TE 200), continuously superfused with Tyrode solution. Sarcomere length (SL) and Ca^2+ transients ([Ca^2+]i) were measured in myocytes stimulated at 1, 2, 4, 6 and 8 Hz. All experiments were conducted at 37° C.
Calcium leakage was assessed as described by Shannon et al (Shannon, T. R. et al., 2002. Circ. Res. 91:594-600). Ventricular myocytes were paced by field stimulation at the different frequencies in normal Tyrode until cellular Ca^2+ transients reached a steady state. After the last pulse, the superfusing solution was rapidly switched to 0Na^+-0Ca^2+ (Na^+ replaced by Li^+) Tyrode with or without 1 mmol/L tetracaine. In the control condition, [Ca^2+]i was monitored while 0Na^+-0Ca^2+ Tyrode buffer was applied at least 40 seconds, then a rapid pulse of 10 mm/L caffeine was added to cause SR Ca^2+ release. The difference between the basal and the peak total cytosolic [Ca^2+]i in the presence of caffeine is therefore [Ca^2+]T. In the test condition, 0Na+0Ca^2+ Tyrode was applied with tetracaine. In this condition, the leakage is blocked and the difference in [Ca^2+]T between tetracaine and control condition corresponds to diastolic leakage. […]

[4] = test system: NOS1−/− cardiomyocytes; experiment: Sarcoplasmic reticulum Ca2+ stores by rapid caffeine infusion; details: for Sarcoplasmic reticulum Ca2+ content (% [Ca2+]i, percent change from baseline): NOS1−/− cardiomyocytes, 4 Hz, caffeine 10 mmol/L, untreated NOS1−/− 13.7±3.1%; for Ca2+ reserves: NOS1−/− myocytes at 4 Hz
Procedure: In order to assess calcium stores, caffeine (10 mmol/L) was rapidly infused after a 10 second pause following steady-state pacing at 1 and 4 Hz. In order to calculate the [Ca^2+]i of caffeine pulse was normalized as follows:
([Ca^2+]i at caffeine−[Ca^2+]i at pacing)/[Ca^2+]i at pacing×100.
Experiments were then repeated after incubating the cells with previously mentioned drugs.

[5] = target: T1, xanthine oxidoreductase (XOR) (Mus musculus, UniProt Q00519); experiment: Xanthine oxidoreductase activity, Amplex red superoxide production in heart homogenates; type: biochemical
T1 construct: NOS 1^−/− cardiac homogenates as source of the enzyme; from tissue; host or cells: heart homogenate of NOS1-/- mice, passed through Sephadex G-25
T1 sequence (Q00519 whole entry): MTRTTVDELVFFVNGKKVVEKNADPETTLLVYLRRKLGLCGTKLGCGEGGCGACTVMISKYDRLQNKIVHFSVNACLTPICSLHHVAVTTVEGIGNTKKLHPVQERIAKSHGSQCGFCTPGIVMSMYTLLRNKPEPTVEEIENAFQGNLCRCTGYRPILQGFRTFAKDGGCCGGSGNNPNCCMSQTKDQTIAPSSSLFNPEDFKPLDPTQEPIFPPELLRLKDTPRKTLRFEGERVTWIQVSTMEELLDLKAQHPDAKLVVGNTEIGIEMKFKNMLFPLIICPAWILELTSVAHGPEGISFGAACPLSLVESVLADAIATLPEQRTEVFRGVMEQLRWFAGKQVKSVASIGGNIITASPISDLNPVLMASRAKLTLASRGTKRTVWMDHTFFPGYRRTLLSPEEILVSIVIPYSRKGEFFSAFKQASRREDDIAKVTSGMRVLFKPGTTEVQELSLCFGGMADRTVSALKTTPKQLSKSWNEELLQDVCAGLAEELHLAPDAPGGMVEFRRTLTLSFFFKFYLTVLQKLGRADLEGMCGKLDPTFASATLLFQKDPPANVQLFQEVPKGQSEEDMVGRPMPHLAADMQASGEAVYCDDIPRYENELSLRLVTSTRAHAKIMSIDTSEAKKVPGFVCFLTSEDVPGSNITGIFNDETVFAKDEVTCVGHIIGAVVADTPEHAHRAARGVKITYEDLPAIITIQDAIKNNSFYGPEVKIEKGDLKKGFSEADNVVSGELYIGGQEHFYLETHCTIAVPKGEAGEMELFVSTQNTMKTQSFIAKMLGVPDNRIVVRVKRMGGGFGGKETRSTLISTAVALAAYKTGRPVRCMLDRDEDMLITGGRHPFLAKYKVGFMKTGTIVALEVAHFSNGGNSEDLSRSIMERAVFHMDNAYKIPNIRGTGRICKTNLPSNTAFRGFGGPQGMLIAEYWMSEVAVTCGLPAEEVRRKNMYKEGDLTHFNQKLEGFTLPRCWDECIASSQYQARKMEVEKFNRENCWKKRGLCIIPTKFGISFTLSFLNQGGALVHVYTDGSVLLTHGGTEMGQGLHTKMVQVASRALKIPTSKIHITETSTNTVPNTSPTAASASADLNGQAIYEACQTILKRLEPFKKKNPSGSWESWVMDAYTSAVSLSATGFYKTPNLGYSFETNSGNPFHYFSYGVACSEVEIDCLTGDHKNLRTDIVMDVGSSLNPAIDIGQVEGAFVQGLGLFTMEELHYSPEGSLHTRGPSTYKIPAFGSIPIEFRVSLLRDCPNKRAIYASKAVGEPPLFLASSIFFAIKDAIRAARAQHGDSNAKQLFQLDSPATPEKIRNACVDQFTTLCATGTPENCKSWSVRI
Procedure: (§2) Xanthine Oxidoreductase activity: XOR activity was investigated by measuring uric acid and superoxide production. Heart homogenates were passed through a Sephadex G-25 column (GE Healthcare, Piscataway, N.J.) and XOR-dependent superoxide production was measured using Amplex red (Molecular Probes, Eugene, Oreg.) (0.05 mmol/L), horseradish peroxidase (HRP, 0.2 U/ml) and xanthine (0.1 mmol/L). In the assay, xanthine oxidase catalyzes the oxidation of xanthine to uric acid and superoxide. Superoxide spontaneously degrades to hydrogen peroxide (H2O2), and this, in the presence of HRP, reacts with Amplex Red to generate resurofin. Resurofin fluorescence was measured at 590 nm with excitation at 530-560 nm In parallel, the processed effluent was assessed spectrophotometrically at 295 nm for uric acid. The reaction mixture in 50 mM phosphate buffer, pH 7.4, contained 50 μl of the effluent, EDTA-Na2 (1 mmol/L), xanthine (0.2 mmol/L). […] The obtained values were plotted against a standard curve with known concentrations of XOR.

[6] = target: NADPH oxidase (NOX); experiment: NADPH oxidase dependent ONOO− production, APF fluorescence in heart homogenates; type: biochemical, mouse; details: NOS1−/− heart extracts, NADPH 0.3 mmol/L; read-out: IC50, NOX-dependent peroxynitrite production
Procedure: NADPH oxidase dependent and XOR dependent ONOO— production: NADPH oxidase and XOR dependent ONOO— production was measured in heart homogenates using p-aminophenyl fluorescein (APF) as indicator. Proteins were diluted in modified Krebs-HEPES buffer and incubated with NADPH or xanthine for 30 minutes at 37° C. APF was added just before the fluorescence readings, measuring at 515 nm with excitation at 490 nm.

[7] = test system: NOS1−/− myocytes; experiment: Assessment of SR Ca2+ leakage with tetracaine, Example 2; type: cell-based, mouse
Procedure: Assessment of SR Ca^2+ leakage: Calcium leakage was assessed as described by Shannon et al (Shannon T. R. et al. Circ Res 2002; 91:594-600). Ventricular myocytes were paced by field stimulation at the different frequencies in normal Tyrode until cellular Ca^2+ transients reached a steady state. After the last pulse, the superfusing solution was rapidly switched to 0Na^+-0Ca^2+(Na^+ replaced by Li^+) Tyrode with or without 1 mmol/L tetracaine. In the control condition, [Ca^2+]i was monitored while 0Na^+-0Ca^2+ Tyrode buffer was applied at least 40 seconds, rapid pulse of 10 mm/L caffeine was added to cause SR Ca^2+ release. The difference between the basal and the peak total cytosolic [Ca^2+]i in the presence of caffeine is, therefore, [Ca^2+]τ. In the test condition, 0Na^+0Ca^2+ Tyrode was applied with tetracaine. In this condition, the leakage is blocked and the difference in [Ca^2+]τ between tetracaine and control condition is diastolic leakage. To calculate [Ca^2+]τ in the SR, the total SR volume was considered 3% of the cell volume and the cytosol volume, 65% of the cell volume.

[8] = target: T1, xanthine oxidoreductase (XOR); experiment: Xanthine oxidoreductase activity, uric acid production in heart homogenates; type: biochemical; details: NOS1−/− cardiac homogenates, xanthine 0.2 mmol/L
Procedure: as §2

[9] = test system: NADPH oxidase (NOX); experiment: NOX-dependent superoxide production, lucigenin chemiluminescence in heart homogenates; type: biochemical, mouse; details: NOS1−/− cardiac homogenates
Procedure: NOX-dependent superoxide production: NADPH-dependent superoxide production was measured in heart homogenates using lucigenin (5 μmol/L)-enhanced chemiluminescence (β-NADPH 300 μmol/L; room temperature) on a microplate luminometer (Veritas, Turner Biosystems, Sunnyvale, Calif.). Briefly, proteins were diluted in modified Krebs-HEPES buffer. NADPH and lucigenin were added to wells just before reading. Chemiluminescence readings were expressed as integrated light units. […] Experiments also were performed in the presence of the flavoprotein inhibitor diphenyleneiodonium (DPI, 0.01 mmol/L).

[10] = 100 μM, paced at 4 Hz, NOS1−/− myocytes

| Compound | sarcomere shortening or calcium transients [1] | suppressed SL and [Ca2+]i responses [2] | SR content [3, 10] | diastolic Ca2+ waves [3, 10] | Sarcoplasmic reticulum Ca2+ content (% [Ca2+]i, percent change from baseline) [4] [%] | Ca2+ reserves [4] | IC50 ([5]; NOS1−/− cardiac homogenates, xanthine 0.1 mmol/L, read-out: IC50, Amplex red XOR activity) [µM] | IC50 [6] [mM] | Diastolic Ca2+ leak, drug alone ([7]; nitroglycerin 10 μmol/L, hydralazine 100 μmol/L) | IC50 [5] [µM] | XOR enzyme activity (uric acid conversion) [8] | concentration that decreased NOX activity / NOX dependent superoxide production [9] [mmol/L] | IC50 ([9]; NADPH 0.3 mmol/L) [µM] | spontaneous Ca2+ waves ([7]; tetracaine 1 mmol/L) | spontaneous Ca2+ transients (waves) during 0Na+/0Ca2+ treatment ([3]; NOS1−/− and NOS3/NOS1−/− myocytes, 1 mmol/L tetracaine) |
| --- | --- | --- | --- | --- | --- | --- | --- | --- | --- | --- | --- | --- | --- | --- | --- |
| NCCN(CCN)/[N+]([O-])=N/O [DETA/NO, diethylenetriamine/nitric oxide adduct] | no effect | restored towards levels similar to WT | increased | did not reduce | 42.8±6.5 | increased | – | – | – | – | – | – | – | – | – |
| NNc1nncc2ccccc12 [hydralazine] | no effect | – | – | – | 49.2±16.3 | – | 700 ± 300 | – | – | – | – | – | – | – | – |
| O=[N+]([O-])OCC(CO[N+](=O)[O-])O[N+](=O)[O-] [nitroglycerin] | no effect | restored towards levels similar to WT | – | – | 42.8±6.5 | increased | – | 1.3 ± 0.4 | not abolished | 1000 ± 400 | did display XOR-inhibitory activity | > 0.01 | 13 | – | – |
| CCCCNc1ccc(C(=O)OCCN(C)C)cc1 [tetracaine] | – | – | – | – | – | – | – | – | – | – | – | – | – | abolished | abolished |
